Results on one sequence are retold here after patent publication US20110306554A1, “PEPTIDE CAPABLE OF BINDING TO IMMUNOGLOBULIN” (priority 2009, published 2011).

Entries after “also recorded” stand apart in the source; their conditions may differ.

For assay [1], the system named is Cy3-labeled goat anti-mouse immunoglobulin (IgG). The assay can be described thus: Peptide array of C1q subunit 15-mers probed with Cy3-labeled immunoglobulin. It counts as binding. The conditions noted are these: peptide spots on glass array, 4° C., 12 hours, background fluorescence intensity is 2.6. The text has this: The amino acid sequences of the A, B, and C subunit chains of human C1q, are shown in SEQ ID NOs: 17 to 19, and the nucleotide sequences in SEQ ID NOs: 20 to 22. Based on each of the amino acid sequences, sequences having 15 amino acids (residues) from each subunit and shifted at intervals of three amino acids, were synthesized on a glass array as synthetic peptides (Peptide Nos. 1 to […], and 193 to 270 for the A, B, and C chains, respectively). The synthesis of each peptide was carried out at a specific location on the array, so as to prepare a peptide array which included the synthetic peptides covering the entire amino acid sequences of the subunits of C1q. The preparation of the array was outsourced to JPT Peptide Technologies GmbH.
To the peptide array was applied 330 μl of an Cy3-labeled goat anti-mouse immunoglobulin (IgG) (1 mg/ml; Zymed Laboratories) diluted 1000-fold with PBS (10 mM phosphate buffer, pH 7.0, 0.1 M NaCl), and the array was sealed and then incubated at 4° C. for 12 hours. After that, the array was washed once with methanol and then 5 times with Milli-Q water for 5 minutes each. The array slide was centrifuged and dried, and scanned with a fluorescence scanner (Agilent DNA microarray scanner; Agilent Technologies), so that fluorescence intensity was quantified at the respective peptide spots on the array using a software (Feature Extraction software; Agilent Technologies). Several spots displaying strong fluorescence intensities were detected. […] Note that in the description, the amino acids are denoted by the one-letter code known in the art.

For assay [2], the system named is Monoclonal antibody cocktail-induced arthritis mice. Put plainly: Arthritis suppressing effects on arthritis-induced mice, Part 1. It counts as in vivo. The method, then:
Monoclonal antibody cocktail-induced arthritis mice (BALE/c Cr Slc (SPF)) were used to examine arthritis suppressing effects of a peptide which is indicated as R5 in Example 2. Arthritis was caused by intravenous administration of 2 mg/mouse of an arthritis-inducing monoclonal antibody cocktail and three days later, intraperitoneal administration of 50 μg/mouse of Lipopolysaccharide (LPS). Peptide R5 was intraperitoneally administered at a dose of 10 mg/kg once or twice a day from the day following the LPS administration (day 4) up to day 14. Methotrexate, a positive control drug, was orally administered at a dose of 0.1 mg/kg once a day from day 4. Clinical scores of the extremities were measured on even days from day 0 up to day 14. Under anesthesia, blood was removed with heparin-containing physiological saline, and an ice-cooled, 4% solution of paraformaldehyde was continuously injected to perfusion-fix the whole body. After perfusion-fixation, the knee joints (obtained by cutting at the center of the femur and of the tibia and removing the skin and muscles) and hock joints (from the center of the tibia to the toe tips) of both hind limbs were excised and further fixed by immersion in a 4% solution of paraformaldehyde overnight (4° C.). After that, both knee joints and both hock joints were transferred into 50 mM PBS (4° C.), and then subjected to soft x-ray radiography of the hock joints in two directions (from the internal side and the upper side).
The required amount was calculated for the peptide, based on the animal weight. A peptide solution was prepared to make a concentration of 1 mg/ml in a 0.5% methyl cellulose solution, and the prepared peptide solution was cold stored.
A solution of methotrexate was prepared by weighing 1 mg of methotrexate into an agate mortar, grinding it with a pestle, and then gradually adding a 0.5% methyl cellulose solution to form a suspension and make a concentration of 0.01 mg/ml. […]
Results of examinations were expressed by mean value±standard error and analyzed using EXSAS (Version 7.1.6, Arm Systex Co., Ltd.). […]

On to “STGKFTCKVPGLYYF (Immunoglobulin binding peptide) [R5]”, for which, in assay [1], the Fluorescence intensity is given as 65,311. For the same sequence, the “difference in effectiveness between once-a-day and twice-a-day administration” value in assay [2] (10 mg/kg intraperitoneal) is recorded as “no significant difference”. Also, the “degree of arthritis suppression compared with methotrexate” value in assay [2] (10 mg/kg intraperitoneal vs methotrexate 0.1 mg/kg orally once a day) is reported as “higher degree of arthritis suppression than that of methotrexate”. Moreover, the “arthritis suppressing effect (clinical score)” value in assay [2] (10 mg/kg intraperitoneal, once or twice a day, day 4 to day 14) is “exhibited arthritis suppressing effects; also recorded: arthritis was suppressed”.
